Results on two molecules are retold here after publication PMC10214534, “Enzymatic Fluoromethylation Enabled by the S-Adenosylmethionine Analog Te-Adenosyl-L-(fluoromethyl)homotellurocysteine” (ACS Central Science, 2023).

Format in all cases: biochemical
The target of assay [1] is T1, CFA synthase (Escherichia coli, UniProt P0A9H7).
T1 construct: construct only in supplement
Kind of assay: turnover, LC-MS/MS and […]-NMR. Conditions: fluoromethyl donor; co-substrate dOPG.

For assay [2], the target named is T2, TPMT (Homo sapiens, UniProt P51580).
T2 construct: construct only in supplement
T2 sequence (P51580 1-245): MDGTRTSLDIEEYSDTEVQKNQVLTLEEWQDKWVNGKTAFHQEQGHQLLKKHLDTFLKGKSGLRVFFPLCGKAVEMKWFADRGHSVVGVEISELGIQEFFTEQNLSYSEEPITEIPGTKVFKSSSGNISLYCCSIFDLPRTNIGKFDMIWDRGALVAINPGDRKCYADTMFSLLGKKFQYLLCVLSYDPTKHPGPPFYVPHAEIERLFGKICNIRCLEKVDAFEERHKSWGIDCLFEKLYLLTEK
Description: fluoromethyl transfer kinetics. Conditions: fluoromethyl donor; thiol co-substrate as in Table 1.

Assay [3] has as its target T2, TPMT. Description: methyl transfer kinetics. Conditions: methyl donor; thiol co-substrate as in Table 1.

Molecules are shown by their SMILES.

T1 sequence (P0A9H7 2-382): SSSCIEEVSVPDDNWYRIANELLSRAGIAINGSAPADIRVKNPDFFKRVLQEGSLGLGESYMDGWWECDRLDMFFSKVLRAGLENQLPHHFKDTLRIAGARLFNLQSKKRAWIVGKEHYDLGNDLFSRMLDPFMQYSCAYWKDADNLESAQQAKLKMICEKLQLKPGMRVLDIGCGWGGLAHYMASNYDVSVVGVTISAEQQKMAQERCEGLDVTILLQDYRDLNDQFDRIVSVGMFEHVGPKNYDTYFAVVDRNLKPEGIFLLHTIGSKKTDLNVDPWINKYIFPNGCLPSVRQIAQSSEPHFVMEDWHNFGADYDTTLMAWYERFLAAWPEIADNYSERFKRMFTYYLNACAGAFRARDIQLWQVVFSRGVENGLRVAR

Take `Nc1ncnc2c1ncn2[C@@H]1O[C@H](C[Te+](CF)CC[C@H](N)C(=O)O)[C@@H](O)[C@H]1O` [FMeTeSAM]: in assay [1], the “turnover, LC-MS/MS and 19F-NMR” value is “E. coli CFA synthase can use FMeTeSAM to catalyze cyclopropanation”. Moreover, in assay [2], the Km result is reported as “the Km for FMeTeSAM is nearly the same as that for SAM”.

In the case of `C[S+](CC[C@H](N)C(=O)O)C[C@H]1O[C@@H](n2cnc3c(N)ncnc32)[C@H](O)[C@@H]1O` (stereo partly drawn) [SAM], in assay [3], the Km result is given as “the Km for FMeTeSAM is nearly the same as that for SAM”.
